Source: patent US12617756B2 (ABIVAX, priority 2019, dated 2026)
pEC50: −log10 of the molar value.

system: RSV A2; experiment: Screening for RSV inhibition using Viral ToxGlo assay (cytopathic effect inhibition in HEp-2 cells); assay type: cell-based, Respiratory Syncytial Virus (RSV); settings: RSV A2 in HEp-2 cells, MOI 0.5, 72h p.i., cytopathic effect inhibition relative to virus control, Viral ToxGlo luminescence
Procedure: Protocol for Screening Antiviral Compounds for RSV Inhibition and Cytotoxicity Using Viral ToxGlo Assay
HEp-2 cells were maintained in Eagle's minimum essential medium (EMEM) with Earle's BSS adjusted to contain 2 mM L-glutamine, 10% fetal bovine serum, 100 U/ml penicillin and 100 µg/ml streptomycin. For the purposes of the screening assay they were grown to 90% confluency, trypsinized and recovered. The trypsin was neutralised with cell culture media and cells were centrifuged at 150×g for 5 minutes before discarding the supernatant and resuspending cell pellet in assay media (EMEM with Earle's BSS adjusted to contain 2 mM L-glutamine, 2% fetal bovine serum and 100 U/ml penicillin and 100 µg/ml streptomycin). The cells were seeded into white clear-bottomed cell culture plates at a density of 1.5×10^4 cells/well in 50 μl and 4×10^3 cells/well in 25 μl for 96 well plates and 384 well plates respectively. For the media/background control column assay media only was added. Cell plates were placed in a humid chamber and incubated overnight at 37° C./5% CO2. After overnight incubation cells were checked for confluency and healthy appearance.
Test articles were made up at 10× test concentration in a maximum DMSO concentration of 10% (final assay concentration maximal 1% DMSO) and added to the cell plates in volumes of […] for 96 well plates and 5 μl for 384 well plates. For cell control and virus control wells the test article solvent only was added. Virus or assay media for cytotoxicity test wells and media/cell control wells was added immediately after test articles at an MOI of […] for 96 and 384 well plates respectively. Virus suspension was prepared by thawing RSV A2 frozen stocks and diluting to the required concentration of plaque forming units in assay media on ice.
Cell plates were further incubated inside a humid chamber for 72h p.i at 37° C./5% CO2. After the incubation period cells were observed under the microscope to check for characteristic cytopathic effect in virus control wells and healthy cells in the cell control wells. After plates were adjusted to room temperature 20/40 μl Viral ToxGlo (Promega) was added to each well of the 384/96 well cell plates. Plates were incubated at room temperature, protected from light on a plate rocker for 20 minutes before measuring the luminescence on a spectrophotometer (Biotek Synergy HTX).

SMILES	pEC50
O=C(N=C1NCCN1)c1cc(F)c(Nc2cccc(C3=NCCN3)c2)c(C2CC2)c1 [Compound 169, 3-cyclopropyl-4-{[3-(4,5-dihydro-1H-imidazol-2-yl)phenyl]amino}-5-fluoro-N-(imidazolidin-2-ylidene)benzamide]	7.87

same assay, conditions: human respiratory syncytial virus; RSV A2 in HEp-2 cells, MOI 0.5, 72h p.i., cytopathic effect inhibition relative to virus control, Viral ToxGlo luminescence

SMILES	pEC50
CC(C)=CCn1nnnc1-c1cccc(Nc2ccc(C(=O)N=C3NCCN3)cc2C2CC2)c1 [Compound 60, 3-cyclopropyl-N-[(2Z)-imidazolidin-2-ylidene]-4-({3-[1-(3-methylbut-2-en-1-yl)-1H-1,2,3,4-tetrazol-5-yl]phenyl}amino)benzamide]	6.62
CC1(NC(=O)c2ccnc(Nc3ccc(C(=O)N=C4NCCN4)cc3C3CC3)c2Cl)CC1 [Compound 123, 3-chloro-2-[(2-cyclopropyl-4-{[imidazolidin-2-ylidene]carbamoyl}phenyl)amino]-N-(1-methylcyclopropyl)pyridine-4-carboxamide]	7.08
CC(=O)N1CCN/C1=N\C(=O)c1ccc(Nc2cccc(OCCCC3CCCCC3)c2)c(C2CC2)c1 [Compound 46, N-[(2E)-1-acetylimidazolidin-2-ylidene]-4-{[3-(3-cyclohexylpropoxy)phenyl]amino}-3-cyclopropylbenzamide]	6.98
O=C(N=C1NCCN1)c1cc(F)c(Nc2cccc(C(=O)N3CCOCC3)c2Cl)c(C2CCOC2)c1 (centres unmarked) [Compound 134, 4-{[2-chloro-3-(morpholine-4-carbonyl)phenyl]amino}-3-fluoro-N-[imidazolidin-2-ylidene]-5-(oxolan-3-yl)benzamide]	7.41
CC1(NC(=O)c2cccc(Nc3ccc(C(=O)N=C4NCCN4)cc3C(C)(C)C)c2Cl)CC1 [Compound 132, 3-tert-butyl-4-({2-chloro-3-[(1-methylcyclopropyl)carbamoyl]phenyl}amino)-N-[imidazolidin-2-ylidene]benzamide]	7.63
O=C(N=C1NCCN1)c1ccc(Nc2cccc(C(=O)N3CCOCC3)c2C(F)(F)F)c(C2CC2)c1 [Compound 115, 3-cyclopropyl-N-[imidazolidin-2-ylidene]-4-{[3-(morpholine-4-carbonyl)-2-(trifluoromethyl)phenyl]amino}benzamide]	7.53
CC(C)(O)c1cc(C(=O)N=C2NCCN2)ccc1Nc1cccc(C(=O)N2CCOCC2)c1C(F)(F)F [Compound 30, 3-(2-hydroxypropan-2-yl)-N-[(2E)-imidazolidin-2-ylidene]-4-{[3-(morpholine-4-carbonyl)-2-(trifluoromethyl)phenyl]amino}benzamide]	7.37
CC(=O)N1CCN/C1=N\C(=O)c1ccc(Nc2cccc(NC(=O)C(C)C)c2)c(C2CC2)c1 [Compound 110, N-[(2E)-1-acetylimidazolidin-2-ylidene]-3-cyclopropyl-4-{[3-(2-methylpropanamido)phenyl]amino}benzamide]	6.49
CC1(NC(=O)c2cccc(Nc3ccc(C(=O)N=C4NCCN4)cc3S(C)(=O)=O)c2Cl)CC1 [Compound 102, 2-chloro-3-[(4-{[(2Z)-imidazolidin-2-ylidene]carbamoyl}-2-methanesulfonylphenyl)amino]-N-(1-methylcyclopropyl)benzamide]	6.09
CC1(NC(=O)c2cccc(Nc3c(C#N)cc(C(=O)N=C4NCCN4)cc3C3CC3)c2)CC1 [Compound 149, 3-cyano-5-cyclopropyl-N-[imidazolidin-2-ylidene]-4-({3-[(1-methylcyclopropyl)carbamoyl]phenyl}amino)benzamide]	7.34
O=C(N=C1NCCN1)c1ccc(Nc2cccc(C(=O)NC3(C(F)(F)F)CC3)c2)c(C2CC2)c1 [Compound 53, 3-cyclopropyl-N-[(2Z)-imidazolidin-2-ylidene]-4-[(3-{[1-(trifluoromethyl)cyclopropyl]carbamoyl}phenyl)amino]benzamide]	6.82
O=C(N=C1NCCN1)c1cc(F)c(Nc2nccc(C(=O)NC34CC(C3)C4)c2Cl)c(C2CC2)c1 [Compound 164]	8.42
CC(C)C(=O)Nc1cccc(Nc2ccc(C(=O)N=C3NCCN3)cc2C2CC2)c1 [Compound 26, 3-cyclopropyl-N-[(2E)-imidazolidin-2-ylidene]-4-{[3-(2-methylpropanamido)phenyl]amino}benzamide]	7.46
O=C(N=C1NCCN1)c1ccc(Nc2cc(F)cc(C(=O)N3CCOCC3)c2Cl)c(C2CC2)c1 [Compound 118, 4-{[2-chloro-5-fluoro-3-(morpholine-4-carbonyl)phenyl]amino}-3-cyclopropyl-N-[imidazolidin-2-ylidene]benzamide]	7.57
CC(C)C(=O)Nc1cccc(Nc2ccc(C(=O)N=C3NCCN3)cc2C2CCOC2)c1 (centres unmarked) [Compound 63, N-[(2E)-imidazolidin-2-ylidene]-4-{[3-(2-methylpropanamido)phenyl]amino}-3-(oxolan-3-yl)benzamide]	6.14
N#CC1(NC(=O)c2cccc(Nc3c(F)cc(C(=O)N=C4NCCN4)cc3C3CC3)c2)CC1 [Compound 127, 4-({3-[(1-cyanocyclopropyl)carbamoyl]phenyl}amino)-3-cyclopropyl-5-fluoro-N-[imidazolidin-2-ylidene]benzamide]	7.00
CC1(NC(=O)c2cccc(Nc3c(F)cc(C(=O)N=C4NCCN4)cc3C3CC3)c2Cl)CC1 [Compound 129, 4-({2-chloro-3-[(1-methylcyclopropyl)carbamoyl]phenyl}amino)-3-cyclopropyl-5-fluoro-N-[imidazolidin-2-ylidene]benzamide]	8.37
O=C(N=C1NCCN1)c1cc(F)c(Nc2cccc(C(=O)N3CCOCC3)c2F)c(C2CC2)c1 [Compound 158, 3-cyclopropyl-5-fluoro-4-{[2-fluoro-3-(morpholine-4-carbonyl)phenyl]amino}-N—[imidazolidin-2-ylidene]benzamide]	8.17
N#CC1(C(=O)Nc2cccc(Nc3ccc(C(=O)N=C4NCCN4)cc3C3CC3)c2)CC1 [Compound 141, 4-{[3-(1-cyanocyclopropaneamido)phenyl]amino}-3-cyclopropyl-N-[imidazolidin-2-ylidene]benzamide]	6.82
O=C(N=C1NCCN1)c1ccc(Nc2cccc(C(=O)N3CCOCC3)c2Cl)c(C(F)(F)F)c1 [Compound 16, 4-{[2-chloro-3-(morpholine-4-carbonyl)phenyl]amino}-N-[(2E)-imidazolidin-2-ylidene]-3-(trifluoromethyl)benzamide]	7.81
O=C(N=C1NCCN1)c1ccc(Nc2cc(F)cc(C(=O)N3CCOCC3)c2)c(C2CC2)c1 [Compound 73, 3-cyclopropyl-4-{[3-fluoro-5-(morpholine-4-carbonyl)phenyl]amino}-N-[(2Z)-imidazolidin-2-ylidene]benzamide]	5.89
CC(C)NC(=O)c1cccc(Nc2ccc(C(=O)/N=C3\NCC(=O)N3)cc2C(C)(C)C)c1 [Compound 49, 3-tert-butyl-N-[(2E)-4-oxoimidazolidin-2-ylidene]-4-({3-[(propan-2-yl)carbamoyl]phenyl}amino)benzamide]	6.93
CC1(NC(=O)c2nccc(Nc3c(F)cc(C(=O)N=C4NCCN4)cc3C3CC3)c2Cl)CC1 [Compound 157, 3-chloro-4-[(2-cyclopropyl-6-fluoro-4-{[imidazolidin-2-ylidene]carbamoyl}phenyl)amino]-N-(1-methylcyclopropyl)pyridine-2-carboxamide]	7.58
CC(C)NC(=O)c1cccc(Nc2ccc(C(=O)/N=C3\NCCN3C)cc2C2CC2)c1 [Compound 36, 3-cyclopropyl-N-[(2E)-1-methylimidazolidin-2-ylidene]-4-({3-[(propan-2-yl)carbamoyl]phenyl}amino)benzamide]	7.26
CC(C)NC(=O)c1cc(F)cc(Nc2ccc(C(=O)N=C3NCCN3)cc2C2CC2)c1F [Compound 138, 3-[(2-cyclopropyl-4-{[imidazolidin-2-ylidene]carbamoyl}phenyl)amino]-2,5-difluoro-N-(propan-2-yl)benzamide]	6.63
O=C1CN/C(=N\C(=O)c2ccc(Nc3cccc(OCCCC4CCCCC4)c3)c(C3CC3)c2)N1 [Compound 41, 4-{[3-(3-cyclohexylpropoxy)phenyl]amino}-3-cyclopropyl-N-[(2E)-4-oxoimidazolidin-2-ylidene]benzamide]	7.11
CC1(NC(=O)c2cccc(Nc3ccc(C(=O)N=C4NCCN4)cc3C3CCC3)c2)CC1 [Compound 18, 3-cyclobutyl-N-[(2Z)-imidazolidin-2-ylidene]-4-({3-[(1-methylcyclopropyl)carbamoyl]phenyl}amino)benzamide]	7.67
CC(C)NC(=O)c1cccc(Nc2c(F)cc(C(=O)N=C3NCCN3)cc2C2CC2)c1 [Compound 91, 3-cyclopropyl-5-fluoro-N-[(2Z)-imidazolidin-2-ylidene]-4-({3-[(propan-2-yl)carbamoyl]phenyl}amino)benzamide]	8.70
